Laboratory results from patent US9238602B1, “Process for the preparation of cis-2,2,4,4-tetramethylcyclobutane-1,3-diol” (Eastman Chemical Company, priority 2014, dated 2016).

Assay: cis/trans 2,2,4,4-tetramethylcyclobutane-1,3-diol solubility ratio (cis isomer solubility limit divided by trans isomer solubility limit)
Type: physicochemical
Experimental: The definition of cis/trans 2,2,4,4-tetramethylcyclobutane-1,3-diol solubility ratio is also known to one of ordinary skill in the art; in one embodiment, the cis/trans 2,2,4,4-tetramethylcyclobutane-1,3-diol solubility ratio can be defined as the ratio of the cis isomer solubility limit divided by the trans isomer solubility limit at a given temperature for a given solvent or solvents. For example, the cis/trans solubility ratio in water at 80° C. is about 1.0. For MIBC, the cis/trans solubility ratio at 80° C. is about 0.74.

cis/trans solubility ratio (in MIBC (methyl isobutyl carbinol) at 80° C.): about 0.74
cis/trans solubility ratio (in water at 80° C.): about 1.0
Structure (SMILES): CC1(C)C(O)C(C)(C)C1O (centres unmarked) [2,2,4,4-tetramethylcyclobutane-1,3-diol]
